Data taken from patent US5723475A, “Arylpiperidine and arylpiperazine derivatives and medicament containing the same” (Suntory Limited, priority 1995, dated 1998).

Key:
Sodium Channel = assay: Veratridine-induced Sodium Channel Activity Inhibitory Effect (suppression of veratridine-induced depolarization in synaptosomes, Rhodamine 6G); format: biochemical, Wistar rats; settings: compound 0.1 μM; rat brain synaptosomes
Description: Veratridine-induced Sodium Channel Activity Inhibitory Effect
The membrane potential of the synaptosomes prepared from the brain membrane of Wistar rats (male, 10 to 12 weeks old) was measured by the method of Aiuchi et al. [T. Aiuchi et al: Biochimi. Biophys. Acta.

T-type Ca^2+ channel = assay: T-Type Calcium Channel Inhibitory Effect (whole-cell patch clamp, hippocampal CA1 pyramidal cells); format: cell-based, Wistar rats; settings: suppression of peak current after one minute of application; rat hippocampal CA1 pyramidal cells; read-out: T-type Ca^Z+ channel inhibitory effect IC50
Description: T-Type Calcium Channel Inhibitory Effect
The hippocampal CA1 pyramidal cells were isolated from Wistar rats (male/female, 1 week old) in accordance with the method of Takahashi et al. [K. Takahashi et al.; J. Pharmacol. Exp. Ther., 256, 169 (1991)] and the T-type calcium current under conditions of a fixed membrane potential was measured using the whole-cell configuration of the pach clamp technique. The effects of the compounds were evaluated from the rate of suppression of the peak current after one minute of application using the concentration clamp method.

Dopamine D2 receptor = biological target: T1, Dopamine D2 receptor (Rattus norvegicus, UniProt P61169); assay: Dopamine D2 Receptor Blocking Effect ([3H] raclopride binding, striatum membrane fraction); parameters: species or system Wister male rats; settings: 1.0 nM [3H] raclopride, 25° C., one hour
T1 construct: membrane fraction prepared from the striatum of Wister male rats; from tissue; host or cells: striatum of male Wistar rats (6 weeks old), membrane fraction
Description: Dopamine D2 Receptor Blocking Effect
57 μl of the membrane fraction prepared from the striatum of Wister male rats (6 weeks old) was incubated in a buffer at 25° C. for one hour along with the compound and 1.0 nM [^3 H) raclopride. A GF/C glass filter (0.1% polyethylene imine treatment) was used for separation of B/F, then the radioactivity was measured by a beta plate and the effect of the compound was evaluated.

[1] = acute toxicity, death rate up to 24 hours after intravenous injection; settings: mouse, in vivo, ddY mice (male, 6 weeks old), read-out: 50% lethal dosage LD50 of acute toxicity
Excerpt: The compounds of the present invention are low in toxicity.

dopamine D2 receptors = settings: due to its action of blocking dopamine D2 receptors; cited from earlier work

T1 sequence (P61169 whole entry): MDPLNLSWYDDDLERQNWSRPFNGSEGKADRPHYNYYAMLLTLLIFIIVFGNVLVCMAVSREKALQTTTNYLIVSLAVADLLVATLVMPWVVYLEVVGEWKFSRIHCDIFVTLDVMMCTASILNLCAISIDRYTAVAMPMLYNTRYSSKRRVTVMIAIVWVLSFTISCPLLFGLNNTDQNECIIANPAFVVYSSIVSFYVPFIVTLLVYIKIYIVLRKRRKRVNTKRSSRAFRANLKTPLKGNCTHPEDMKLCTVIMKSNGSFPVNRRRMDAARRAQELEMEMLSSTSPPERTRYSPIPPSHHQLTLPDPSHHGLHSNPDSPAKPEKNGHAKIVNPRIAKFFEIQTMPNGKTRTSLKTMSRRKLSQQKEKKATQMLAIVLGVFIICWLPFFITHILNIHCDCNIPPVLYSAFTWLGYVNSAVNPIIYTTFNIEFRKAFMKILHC

SMILES: O=C(CN1CCC(c2ccc(Oc3ccccc3)cc2)CC1)N[C@@H]1C[C@H]1c1ccccc1 (relative stereo) [Compound 56, N-(trans-2-phenyl-1-cyclopropyl)-4-(4-phenoxyphenyl)-1-piperidinacetamide]
- Anti-veratridine effect (inhibiting rate %) (Sodium Channel): 38.4%

SMILES: O=C(CN1CCC(c2ccc(Cc3ccc(F)cc3)cc2)CC1)N[C@@H]1C[C@H]1c1ccccc1 (relative stereo) [Compound 57, N-(trans-2-phenyl-1-cyclopropyl)-4-[4-(4-fluorophenyl)methylphenyl]-1-piperidinacetamide]
- Anti-veratridine effect (inhibiting rate %) (Sodium Channel): 32.8%
- IC50 (T-type Ca^2+ channel): 1500 nM

SMILES: O=C(CCCN1CC=C(c2ccc(Oc3ccccc3)cc2)CC1)NC1CCCOc2ccccc21 (stereo not drawn) [Compound 29, 5-[4-(4-(4-phenoxyphenyl)-1,2,3,6-tetrahydropyridine-1-yl)butyrylamino]-2,3,4,5-tetrahydro-1-benzoxepine]
- Anti-veratridine effect (inhibiting rate %) (Sodium Channel): 27.9%

SMILES: O=C(CCCN1CCC(c2ccc(Oc3ccccc3)cc2)CC1)NC1CCCOc2ccccc21 (stereo not drawn) [Compound 30, 5-[4-(4-(4-phenoxyphenyl)piperidin-1-yl)butyrylamino]-2,3,4,5-5 tetrahydro-1-benzoxepine]
- Anti-veratridine effect (inhibiting rate %) (Sodium Channel): 21.4%

SMILES: O=C(CCCN1CC=C(c2ccc(Oc3ccccc3)cc2)CC1)Nc1ccccc1Cc1ccccc1 [Compound 32, 2-benzyl-1-[4-(4-(4-phenoxyphenyl)-1,2,3,6-tetrahydropyridin-1-yl)butyrylamino]benzene]
- Anti-veratridine effect (inhibiting rate %) (Sodium Channel): 35.7%
- IC50 (Dopamine D2 receptor): > 1000 nM

SMILES: O=C(CCCN1CCC(c2ccc(Oc3ccccc3)cc2)CC1)Nc1ccccc1Cc1ccccc1 [Compound 33, 2-benzyl-1-[4-(4-(4-phenoxyphenyl)piperidin-1-yl)butyrylamino]benzene]
- Anti-veratridine effect (inhibiting rate %) (Sodium Channel): 37.5%

SMILES: O=C(CCCN1CCN(c2ccc(Cc3ccc(F)cc3)cc2)CC1)Nc1ccccc1Cc1ccccc1 [Compound 34, 2-benzyl-1-[4-(4-(4-(4-fluorophenyl)methylphenyl)piperazin-1-yl)butyrylamino]benzene]
- Anti-veratridine effect (inhibiting rate %) (Sodium Channel): 50.2%
- IC50 (T-type Ca^2+ channel): 10000 nM
- IC50 (Dopamine D2 receptor): 7000 nM

SMILES: O=C(CCCN1CCC(c2ccc(Cc3ccc(F)cc3)cc2)CC1)Nc1ccccc1Cc1ccccc1 [Compound 35, 2-benzyl-1-[4-(4-(4-(4-fluorophenyl)methylphenyl)piperidin-1-yl)butyrylamino]benzene]
- Anti-veratridine effect (inhibiting rate %) (Sodium Channel): 40.6%

SMILES: O=C(CCCCCN1CC=C(c2ccc(Oc3ccccc3)cc2)CC1)Nc1ccccc1Cc1ccccc1 [Compound 36, 2-benzyl-1-[6-(4-(4-phenoxyphenyl)-1,2,3,6-tetrahydropyridine-1-yl)hexanoylamino]benzene]
- Anti-veratridine effect (inhibiting rate %) (Sodium Channel): 55.1%
- IC50 (Dopamine D2 receptor): > 1000 nM

SMILES: O=C(CCCCCN1CCC(c2ccc(Oc3ccccc3)cc2)CC1)Nc1ccccc1Cc1ccccc1 [Compound 37, 2-benzyl-1-[6-(4-(4-phenoxyphenyl)piperidin-1-yl)hexanoylamino]benzene]
- Anti-veratridine effect (inhibiting rate %) (Sodium Channel): 62%
- IC50 (Dopamine D2 receptor): > 1000 nM

SMILES: O=C(CCCCCN1CCN(c2ccc(Cc3ccc(F)cc3)cc2)CC1)Nc1ccccc1Cc1ccccc1 [Compound 38, 2-benzyl-1-[6-(4-(4-(4-fluorophenyl)methylphenyl)piperazin-1-yl)hexanoylamino]benzene]
- Anti-veratridine effect (inhibiting rate %) (Sodium Channel): 56.6%

SMILES: Cc1cccc(Cc2ccccc2)c1NC(=O)CN1CCC(c2ccc(Oc3ccccc3)cc2)CC1 [Compound 39, 2-benzyl-1-[2-(4-(4-phenoxyphenyl)piperidin-1-yl)acetylamino]-6-methylbenzene]
- Anti-veratridine effect (inhibiting rate %) (Sodium Channel): 16.6%

SMILES: Cc1cccc(Cc2ccccc2)c1NC(=O)CCCN1CCC(c2ccc(Oc3ccccc3)cc2)CC1 [Compound 41, 2-benzyl-1-[4-(4-(4-phenoxyphenyl)piperidin-1-yl)butyrylamino]-6-methylbenzene]
- Anti-veratridine effect (inhibiting rate %) (Sodium Channel): 30.4%

SMILES: Cc1cccc(Cc2ccccc2)c1NC(=O)CCCN1CCN(c2ccc(Cc3ccc(F)cc3)cc2)CC1 [Compound 42, 2-benzyl-1-[4-(4-(4-(4-fluorophenyl)methylphenyl)piperazin-1-yl)butyrylamino]-6-methylbenzene]
- Anti-veratridine effect (inhibiting rate %) (Sodium Channel): 16.6%

SMILES: Cc1cccc(C)c1NC(=O)CCCN1CCC(c2ccc(Oc3ccccc3)cc2)CC1 [Compound 47, 2,6-dimethyl-1-[4-(4-(4-phenoxyphenyl)piperidin-1-yl)butyrylamino]benzene]
- Anti-veratridine effect (inhibiting rate %) (Sodium Channel): 17.3%

SMILES: Cc1cc(C)c(NC(=O)CCCN2CCC(c3ccc(Cc4ccc(F)cc4)cc3)CC2)c(C)c1 [Compound 49, 2,4,6-trimethyl-1-[4-(4-(4-(4-fluorophenyl)methylphenyl)piperidine-1-yl)butyrylamino]benzene]
- Anti-veratridine effect (inhibiting rate %) (Sodium Channel): 17%

SMILES: O=C(CCCN1CCN(c2ccc(Cc3ccc(F)cc3)cc2)CC1)N1CCCOc2ccccc21 [Compound 53, 5-[4-(4-(4-(4-fluorophenyl)methylphenyl)piperazin-1-yl)butyryl]-2,3,4,5-tetrahydro-1,5-benzoxazepine]
- Anti-veratridine effect (inhibiting rate %) (Sodium Channel): 33.8%
- IC50 (T-type Ca^2+ channel): 2800 nM
- IC50 (Dopamine D2 receptor): 1260 nM
- LD50 at 24 h [1]: 46.5 mg/kg

SMILES: O=C(CCCN1CCC(c2ccc(Cc3ccc(F)cc3)cc2)CC1)N1CCCOc2ccccc21 [Compound 54, 5-[4-(4-(4-(4-fluorophenyl)methylphenyl)piperidin-1-yl)butyryl]-2,3,4,5-tetrahydro-1,5-benzoxazepine]
- Anti-veratridine effect (inhibiting rate %) (Sodium Channel): 29.4%

SMILES: O=C(CN1CCC(c2ccc(Oc3ccccc3)cc2)CC1)Nc1ccccc1 [Compound 59, N-phenyl-4-(4-phenoxyphenyl)-1-piperidinacetamide]
- Anti-veratridine effect (inhibiting rate %) (Sodium Channel): 32.9%

SMILES: O=C(CN1CCC(c2ccc(Cc3ccc(F)cc3)cc2)CC1)Nc1ccccc1 [Compound 60, N-phenyl-4-[4-(4-fluorophenyl)methylphenyl]-1-piperidinacetamide]
- Anti-veratridine effect (inhibiting rate %) (Sodium Channel): 33.9%

SMILES: O=C(NCCN1CCC(c2ccc(Oc3ccccc3)cc2)CC1)c1ccccc1 [Compound 62, 1-(2-benzoylaminoethyl)-4-(4-phenoxyphenyl)piperidine]
- Anti-veratridine effect (inhibiting rate %) (Sodium Channel): 36%

SMILES: O=C(NCCN1CCC(c2ccc(Oc3ccccc3)cc2)CC1)C1(c2ccccc2)CC1 [Compound 63, 1-[2-(1-phenyl-1-cyclopropylcarboxyamino)ethyl]-4-(4-phenoxyphenyl) piperidine]
- Anti-veratridine effect (inhibiting rate %) (Sodium Channel): 36.2%

SMILES: C=C(c1ccccc1)N(C)C(=O)CN1CCC(c2ccc(Oc3ccccc3)cc2)CC1 [Compound 64, N-methyl-N-(1-phenylvinyl)-4-(4-phenoxyphenyl)-1-piperidinacetamide]
- Anti-veratridine effect (inhibiting rate %) (Sodium Channel): 31.5%

SMILES: Fc1ccc(C(c2ccc(F)cc2)N2CCN(C/C=C/c3ccccc3)CC2)cc1 [Flunarizine]
- side effect (dopamine D2 receptors): onset of symptoms of Parkinson's disease
